Results on three compounds are retold here after patent US20140024582A1, “STABLE INSULIN FORMULATIONS AND METHODS OF MAKING AND USING THEREOF” (Genecopoeia, Inc., priority 2010, published 2014).

What all share (assay type): physicochemical
A short description of data set [1]: Total degradation products of porcine insulin formulations by C18 reverse-phase HPLC. As for the experimental part: Six test formulations were prepared at proline concentrations of 0, 1.6 M and 2.8 M with acetone concentrations at 0 and 3 mg/ml, as listed in the following table. Those test formulations were stored at room temperature in the dark. At times, aliquots were withdrawn to be analyzed on C18 reverse-phase HPLC to measure total degradation products, as summarized in the table below.

Data set [2] in a line: Visual precipitation of insulin solutions stored at room temperature in the dark. On the procedure: Insulin was dissolved in 0.10 N hydrochloric acid (5 μL per milligram of insulin) and made into a series of solutions at its concentration of 4.0 mg/ml with various additives, and the pH was adjusted to pH 7.4 using 0.05 N sodium hydroxide. Samples were kept at room temperature (25° C.) in the dark.
Zinc-free recombinant human insulin (16 mg) was dissolved in 0.10 N hydrochloric acid (70 microliters), and to this insulin was added 6.0 ml of the above proline solution. This stock solution was further made into a series of solutions at its concentration of 2.0 mg/ml with various additives at pH 7.4. Samples were kept at room temperature (25° C.) in the dark.
After six months, there were no precipitates visible at the bottom, and the solutions were all visually clear. As shown in Example 1 above, insulin without proline forms precipitates in a few days.
Repeat preparation as in Example 2 at proline concentration of 1.0 M, 1.5 M, 2.4 M and 7.0 M, without glycerol and m-cresol. All samples were stored at room temperature in the dark over six month to find no visible insulin precipitate.

Data set [3] in a line: Covalent insulin dimers quantified by SEC HPLC during storage. The conditions noted are these: zinc-free insulin and zinc-insulin with EDTA, Example 4. On the procedure: A group of stock solutions were prepared: proline (6.25 M) in water, EDTA (0.10 M, pH 7.4), glycerol(320 mg/ml) containing m-Cresol (25 mg/ml) in water, sodium insulin(10 mg/ml) in phosphate buffer (25 mM, pH 7.4). Eight formulations were prepared using those stock solutions as in the table below.
All the eight formulations were kept at room temperature in the dark. At times, aliquots were withdrawn for HPLC analysis (Injection volume: 0.10 ml).
During the storage, covalent insulin dimers were quantified by SEC HPLC, and the results are summarized below.
Column: Protein Pak, 125 Å, Waters, WAT084601
Mobile Phase: 20% Acetonitrile, 15% acetic acid, 65% water
For orientation: In gel filtration, larger molecules generally elute earlier.

Structures are written as SMILES. Like-named read-outs stand apart in the source and are kept apart here.

For `CC(C)=O` [acetone], the “Effect on total amount of degradation side products” value in data set [1] (porcine insulin, period of 8 weeks, Example 5) was “further enhances the stabilizing effect of proline”.
Consider `O=C(O)[C@@H]1CCCN1` [proline], for which the “Effect of proline on precipitation of monomeric insulin” value in data set [2] (proline 2.4 M, Example 2) is “ability to deter monomeric insulin from precipitation”. Also, in data set [3], the “Effect on formation of high molecular weight insulin degradation side products” value is on record as “reduces formation of high molecular weight insulin degradation side products”. Further, in data set [1], the “Effect on total amount of degradation side products” value is “reduces total amount of degradation side products”.
As to `N=C(N)NCCC[C@H](N)C(=O)O` [arginine], in data set [2] (arginine at 0.5 M, Example 1), the “Effect of arginine on precipitation of monomeric insulin” value is recorded as “has ability to deter monomeric insulin from precipitation”.
